Laboratory results reported in US5424311A, “Azaquinoxalines and their use” (Hoeschst Aktiengesellschaft, priority 1992, dated 1995).
Values after ≈ are worked out from the molar mass of the structure shown.

Columns and labels:
[1] = target: T1, HIV reverse transcriptase (Human immunodeficiency virus type 1 group M subtype B, UniProt P04585); experiment: Inhibition of HIV reverse transcriptase (scintillation proximity assay, SPA); assay type: biochemical; details: RT-SPA; RT enzyme cloned from HIV in E. coli; 60 min (37° C.)
T1 construct: The RT enzyme (cloned from HIV in E. coli); purchased HT-Biotechnology LTD, Cambridge, UK; host or cells: E. coli
Procedure: Investigation of the substances for inhibition of HIV reverse transcriptase
The reverse transcriptase (RT) activity was determined by means of a scintillation proximity assay (SPA). The reagent kit for the RT-SPA was purchased from Amersham/Buchler (Braunschweig). The RT enzyme (cloned from HIV in E. coli) originated from HT-Biotechnology LTD, Cambridge, UK.
The assay was carried out according to the method manual of the manufacturer Amersham--with the following modifications:
Bovine serum albumin was added to the final concentration of 0.5 mg/ml to the assay buffer.
The assay was carried out in Eppendorf reaction vessels with a volume of 100 μl of mixture.
The RT concentrate from the manufacturer (5000 U/ml) was diluted to an activity of 15 U/ml in tris-HCl buffer 20 mM; pH 7.2; 30% glycerol.
The incubation time for the mixtures was 60 min (37° C.).
After stopping the reaction and "developing" with the bead suspension, 130 μl of mixture were transferred into 4.5 ml of tris-HCl buffer, 10 mM; pH 7.4; 0.15 M NaCl and the tritium activity was measured in a β-counter.
For a preliminary test of the inhibitory activity, the substances were dissolved in DMSO (stock solution c=1 mg/ml) and tested diluted 10^-1, 10^-2, 10^-3 etc. in DMSO.
To determine IC50 values, the inhibitor stock solutions were further diluted in tris-HCl buffer, 50 mM, pH 8 and tested in suitable concentrations.
The concentration appertaining to 50% enzyme inhibition was found from the graph of RT activity against the logarithm of the concentration of the particular test substance.

[2] = test system: HIV; experiment: Tests on products against HIV in cell culture (T-cell culture assay, giant cell formation in infected lymphocytes); assay type: cell-based; details: Human immunodeficiency virus 1, 72 h, lowest product concentration at which no giant cells occurred, 37° C., 3 days
Procedure: Tests on products against HIV in cell culture
RPMI pH 6.8 Complete medium additionally contains 20% fetal calf serum and 40 IU/ml recombinant interleukin 2.
Lymphocytes isolated from fresh donor blood by means of ®Ficoll gradient centrifugation are cultivated in complete medium with the addition of 2 μg/ml phytohemagglutinin (Wellcome) at 37° C. under 5% CO2 for 36 h. The cells are, after addition of 10% DMSO, frozen at a cell density of 5×10^6 and stored in liquid nitrogen. For the test, the cells are thawed, washed in RPMI medium and cultivated in complete medium for 3-4 days.
The test products were dissolved in DMSO and adjusted with complete medium to a concentration of 1 mg/ml. 0.4 ml of medium was placed in 24-well dishes. After addition of 0.1 ml of the dissolved product to the upper row of the dish, a geometric dilution series was produced by transferring 0.1 ml each time. Product-free controls always received 0.4 ml of complete medium with 0.5% DMSO. Lymphocyte cultures with a cell count of 5×10^5 cells/ml were infected by adding 1/50 of the volume of supernatant from HIV-infected lymphocyte cultures. The titer of these culture supernatants was determined by endpoint dilution to be 1-5×10^6 infectious units/mi. After incubation at 37° C. for 30 min, the infected lymphocytes were spun down and taken up again in the same volume of medium. 0.6 ml portions of this cell suspension were placed in all the wells of the assay plate. The mixtures were incubated at 37° C. for 3 days.
The infected cell cultures were examined under the microscope for the presence of giant cells which indicate active virus replication in the culture. The lowest product concentration at which no giant cells occurred was determined as the HIV inhibitory concentration. As a control, the supernatants from the culture plates were examined for the presence of HIV antigen with the aid of an HIV antigen assay in accordance with the information from the manufacturer (Organon).

Compound | IC50 [1] [µM] | MIC [2] [µg/mL]
C[C@@H]1Nc2nc(Cl)ccc2NC1=O [Example 2, (3S)-6-Chloro-3-methyl-3,4-dihydro-1,4,5-triazanaphthalen-2(1H)-one] | 5.06 to 50.6 | > 0.8
C=C(C)OC(=O)N1c2nc(C)ccc2NC(=S)C1C (racemic) [Example 20, (3RS)-4-(Isopropenyloxycarbonyl)-3,6-dimethyl-3,4-dihydro-1,4,5-triazanaphthalene-2(1H)-thione] | 3.61 to 36.1 | –
CC(C)=CCN1c2nc(Cl)ccc2NC(=O)[C@@H]1C [Example 8, (3S)-6-Chloro-3-methyl-4-(3-methyl-2-butenyl)-3,4-dihydro-1,4,5-triazanaphthalen-2(1H)-one] | 0.376 to 3.76 | 0.08 (≈ 0.301 µM)
CSCC1C(=S)Nc2cccnc2N1C(=O)OC(C)C (stereo not drawn) [Example 37, 4-Isopropoxycarbonyl-3-methylthiomethyl-3,4-dihydro-1,4,5-triazanaphthalene-2(1H)-thione] | 0.321 to 3.21 | > 1
CC(C)OC(=O)N1c2ncccc2NC(=O)C1CS(C)(=O)=O (stereo not drawn) [Example 41, 3-Methylsulfonylmethyl-4-isopropoxycarbonyl-3,4-dihydro-1,4,5-triazanaphthalen-2(1H)-one] | – | > 2
C[C@H]1C(=O)Nc2ccc(Cl)nc2N1Cc1ccccn1 [Example 11, (3S)-6-Chloro-3-methyl-4-(2-picolyl)-3,4-dihydro-1,4,5-triazanaphthalen-2(1H)-one] | 0.346 to 3.46 | 0.2 (≈ 0.693 µM)
C=C(C)OC(=O)N1C(=O)[C@H](C)N(C(=O)OC(=C)C)c2nc(Cl)ccc21 [Example 10, (3S)-6-Chloro-1,4-his(isopropenyloxycarbonyl)-3-methyl-3,4-dihydro-1,4,5-triazanaphthalen-2(1H)-one] | 0.273 to 2.73 | 1 (≈ 2.73 µM)
